PMC7522982, “PKIS deep dive yields a chemical starting point for dark kinases and a cell active BRSK2 inhibitor” (Scientific Reports, 2020)
“And” between values parts separate entries of the source, which are not always exact repeats. Identical values can stand only once. Like-named read-outs stand apart in the source and are kept apart here.

Columns and labels:
[1] = molecular target: T1, NLuc-BRSK2 in HEK293 cells (Homo sapiens, UniProt Q8IWQ3); assay: BRSK2 NanoBRET cellular target engagement assay; type: cell-based; conditions: HEK293 cells transiently expressing NLuc-BRSK2, Tracer K5 1 μM, N = 3
T1 construct: host or cells: HEK293
T1 sequence (Q8IWQ3 1-736): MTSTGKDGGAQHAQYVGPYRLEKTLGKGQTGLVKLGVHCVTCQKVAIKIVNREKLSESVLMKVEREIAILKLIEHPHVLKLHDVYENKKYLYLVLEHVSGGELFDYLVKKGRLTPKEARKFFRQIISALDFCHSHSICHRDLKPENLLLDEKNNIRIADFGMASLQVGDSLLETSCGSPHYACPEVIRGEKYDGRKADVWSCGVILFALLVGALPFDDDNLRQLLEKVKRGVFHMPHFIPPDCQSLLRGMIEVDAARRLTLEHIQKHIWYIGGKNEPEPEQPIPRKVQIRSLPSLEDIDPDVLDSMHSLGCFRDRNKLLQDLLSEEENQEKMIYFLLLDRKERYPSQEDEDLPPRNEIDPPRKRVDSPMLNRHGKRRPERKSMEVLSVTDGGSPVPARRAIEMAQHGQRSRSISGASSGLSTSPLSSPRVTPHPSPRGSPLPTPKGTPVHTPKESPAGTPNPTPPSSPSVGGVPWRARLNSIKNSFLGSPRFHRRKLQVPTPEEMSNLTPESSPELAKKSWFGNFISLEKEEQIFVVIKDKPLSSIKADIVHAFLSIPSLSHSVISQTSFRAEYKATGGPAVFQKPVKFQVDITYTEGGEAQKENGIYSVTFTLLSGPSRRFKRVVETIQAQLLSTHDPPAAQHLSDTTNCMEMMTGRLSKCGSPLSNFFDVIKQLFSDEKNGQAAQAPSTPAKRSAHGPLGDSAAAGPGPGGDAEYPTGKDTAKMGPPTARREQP
Procedure: Our interest in illuminating BRSK2 biology motivated further investigation of the cellular target engagement of BRSK2 by GW296115 using our NanoBRET assay. BRSK2 kinase was fused to 19-kDa luciferase (NLuc) at its N-terminus (NLuc–BRSK2) which was transiently expressed in HEK293 cells, and then incubated with a cell-permeable fluorescent energy transfer probe (tracer)[23].
NanoBRET assays were executed as described previously. Constructs for BRSK2 NanoBRET measurements were provided in kind by Promega. The N-terminal Nanoluciferase (NL)/BRSK2 fusion (NL-BRSK2) was encoded in pFN32K expression vector, including flexible Gly-Ser-Ser-Gly linkers between NL and BRSK2 (Promega). For cellular BRSK2 NanoBRET target engagement experiments, a 10 μg/mL solution of DNA in Opti-MEM without serum (Gibco) was prepared with 9 μg/mL of Carrier DNA (Promega) and 1 μg/mL of NL-BRSK2 to achieve a total volume of 1.05 mL. To this solution was then added 31.5 μL of FuGENE HD (Promega) to form a lipid:DNA complex, mixed by inversion 8 times, and incubated at room temperature for 20 min. The resulting transfection complex (1.082 mL) was next gently mixed with HEK293 cells (21 mL) suspended at a density of 2 × 10^5 cells/mL in DMEM containing 10% FBS.
After 24 h, media was removed via aspiration and 85 μL of room temperature Opti-MEM without phenol red (Gibco) was added to each well. […] Next, 5 μL (20 × working stock of NanoBRET Tracer K5 [20 μM] in Tracer Dilution Buffer (Promega N291B)) was added to each well with the exception of the “no tracer” control wells. Test compounds were prepared as concentrated stock solutions in 100% DMSO (Sigma) at a concentration of 10 mM. […] A volume of 10 μL of tenfold test compound stock solutions (final assay concentration of […]) was added to each well. For “no compound” and “no tracer” control wells, 10 μL of Opti-MEM plus DMSO (9 μL Opti-MEM plus 1 μL DMSO) was added to each well to achieve a final concentration of 1% DMSO.
After 2 h, plates were returned to room temperature over the course of 15 min. […] Next, 50 μL of the 3 × substrate/extracellular NL inhibitor stock was added to each well.
Test compounds were evaluated at 8 concentrations in competition with NanoBRET Tracer K5 in HEK293 cells transiently expressing the NL-BRSK2 fusion protein. Raw milliBRET (mBRET) values were obtained by dividing the acceptor emission values (600 nm) by the donor emission values (450 nm), and then multiplying by 1000. Averaged control values were used to represent complete inhibition (no tracer control: transfected cells in Opti-MEM + DMSO; tracer control: transfected cells in Opti-MEM + DMSO + Tracer K5 only), and were plotted alongside the raw mBRET values. The data with n = 3 biological replicates was first normalized and then fit using Sigmoidal, 4PL binding curve in Prism Software (version 8, GraphPad, La Jolla, CA, USA).

BRSK2 = molecular target: T2, BRSK2 (Homo sapiens, UniProt Q8IWQ3); design: purchased Eurofins; conditions: 0.5 μM; cited from earlier work
T2 sequence (Q8IWQ3 1-736): T1 sequence (Q8IWQ3 1-736)

[2] = read-out: BRSK2 NanoBRET data IC50

SMILES	IC50 [1, 2] [nM]	also measured
O=C1NC(=O)c2c1c1c3ccccc3[nH]c1c1[nH]c3ccccc3c21 [Arcyriaflavin A]	7680 ± 3500	–
O=C1NC(=O)C(c2c[nH]c3ccccc23)=C1c1c[nH]c2ccccc12 [Bisindolylmaleimide IV, bisindolylmaleimide IV]	–	biochemical inhibition of BRSK2 (BRSK2): weak biochemical inhibition
O=C1NC(=O)c2c1c1c3ccccc3[nH]c1c1[nH]c3cc(Br)ccc3c21 [CDK4 inhibitor]	1330 ± 230	–
Cn1c2ccccc2c2c3c(c4c5ccccc5n(CCC#N)c4c21)CNC3=O [Gö 6976]	914 ± 640	–
COC(=O)C1(O)CC2OC1(C)n1c3ccccc3c3c4c(c5c6ccccc6n2c5c31)C(=O)NC4 (stereo not shown) [K-252a]	–	IC50 ([1]; BRSK2 NanoBRET data IC50 (nM)): 20.2 nM and < 100 nM
O=C1NCc2c1c1c3ccccc3[nH]c1c1[nH]c3ccccc3c21 [K-252c]	–	IC50 ([1]; BRSK2 NanoBRET data IC50 (nM)): 308 ± 250 nM
O=C1NC(=O)c2c1c1c3ccccc3n3c1c1c2c2ccccc2n1C1CCC3O1 [SB 218078]	883 ± 200	–
